According to patent US20100267637A1, “TREATMENT OF MELANOMA WITH ALPHA THYMOSIN PEPTIDES IN COMBINATION WITH A KINASE INHIBITOR” (SciClone Pharmaceuticals, Inc., priority 2007, published 2010):

Experiments:
[1] = tested on: murine B16 melanoma cells; experiment: Anti-tumor effect: tumor weight at necropsy (Day 16) in mice bearing subcutaneous B16 melanoma; type: in vivo, C57BL/6 mice
Method: (§1) The toxic effects of the dosing regimens were also monitored. […] Meanwhile 9H10 was given in two groups via i.p. on Day 3, 6 and 9. […] Tumor volume and body weight were measured every three days, and tumor weights were measured on Day 16 at the end of the study.
On the day of tumor implantation, approximately 1×10^6 cells in 0.1 mL were subcutaneously injected on the right axillary area of each mouse. The day of tumor implantation was defined as Day 0.
(§2) On Day 3, the animals were randomly assigned into nine different weight-matched and tumor-size-matched groups. Dosing was started on Day 3 using the regimen according to Table 2.
(§3) From Day 1 to Day 15, mortality and moribundity were checked twice daily, the body weights were recorded once every 3 days, and tumors were measured using a caliper once every 3 days. At the end of the study (Day 16), the animals were euthanized by CO2 asphyxiation, and the tumors were excised and weighed.
The anti-tumor effect of the test article was further evaluated with tumor weight (TW) measured on day of necropsy (Day 16). The PI of TW was calculated using the equation below:
PITW(%)=100×(TW vehicle−TW drug treated)/TW vehicle
(§4) Inter-group comparison was performed in terms of tumor volume, tumor weight and body weight, using a student's t test. P values of less than 0.05 were considered to be statistically significant.

[2] = Treatment toxicity: body weight and drug-induced animal deaths in B16 melanoma-bearing mice; type: in vivo, C57BL/6 mice
Method: as §1, §2, §3
Toxicity of all treatment regimens was evaluated with the body weights of the study animals along with the drug-induced animal deaths. The inhibition of body weight was calculated using Excel according to the equation below:
PIBW(%)=100×(BW vehicle−BW drug treated)/BW vehicle
as §4

With CN(C)/N=N/c1[nH]cnc1C(N)=O [DTIC, Dacarbazine] the “Tumor weight on Day 16” value ([1]; animal F1) was 1.40 g, the “Tumor weight on Day 16” value ([1]; animal F2) was 0.43 g and the “Tumor weight on Day 16” value ([1]; animal F3) was 0.47 g. For the same compound, the “Tumor weight on Day 16” value ([1]; animal F4) was 0.68 g, the “Tumor weight on Day 16” value ([1]; animal F5) was 0.56 g and the “Tumor weight on Day 16” value ([1]; animal M1) was 1.80 g. The “Tumor weight on Day 16” value ([1]; animal M2) was 1.80 g, the “Tumor weight on Day 16” value ([1]; animal M3) was 0.83 g and the “Tumor weight on Day 16” value ([1]; animal M4) was 2.30 g. For the same compound, the “Tumor weight on Day 16” value ([1]; animal M5) was 1.90 g, the “Tumor Weight (g) (Mean ± SD)” value ([1]; group mean) was 1.22 ± 0.699 g and the “percent inhibition of tumor weight vs vehicle” value ([1]; vs vehicle) was 28.41%. For the same compound, the “Body Weight (g) (Mean ± SD)” value ([2]; Day 0 (tumor implantation, before dosing)) was 20.86 ± 1.294 g, the “Body weights on Day 0” value ([2]; Day 0, animal F1) was 21.50 g and the “Body weights on Day 0” value ([2]; Day 0, animal F2) was 19.90 g. For the same compound, the “Body weights on Day 0” value ([2]; Day 0, animal F3) was 19.70 g, the “Body weights on Day 0” value ([2]; Day 0, animal F4) was 19.30 g and the “Body weights on Day 0” value ([2]; Day 0, animal F5) was 22.10 g. For the same compound, the “Body weights on Day 0” value ([2]; Day 0, animal M1) was 22.40 g, the “Body weights on Day 0” value ([2]; Day 0, animal M2) was 21.80 g and the “Body weights on Day 0” value ([2]; Day 0, animal M3) was 21.00 g. The “Body weights on Day 0” value ([2]; Day 0, animal M4) was 18.90 g, the “Body weights on Day 0” value ([2]; Day 0, animal M5) was 22.00 g and the “Percent inhibition of body weight vs vehicle (PIBW)” value (“Percent inhibition of body weight” below) ([2]; Day 0) was −0.1440%. The “Body Weight (g) (Mean ± SD)” value ([2]; Day 3 (start of dosing)) was 21.02 ± 0.993 g, the “Body weights on Day 3” value ([2]; Day 3, animal F1) was 21.60 g and the “Body weights on Day 3” value ([2]; Day 3, animal F2) was 19.60 g. For the same compound, the “Body weights on Day 3” value ([2]; Day 3, animal F3) was 20.50 g, the “Body weights on Day 3” value ([2]; Day 3, animal F4) was 20.30 g and the “Body weights on Day 3” value ([2]; Day 3, animal F5) was 21.30 g. The “Body weights on Day 3” value ([2]; Day 3, animal M1) was 22.20 g, the “Body weights on Day 3” value ([2]; Day 3, animal M2) was 22.00 g and the “Body weights on Day 3” value ([2]; Day 3, animal M3) was 21.20 g. For the same compound, the “Body weights on Day 3” value ([2]; Day 3, animal M4) was 19.50 g, the “Body weights on Day 3” value ([2]; Day 3, animal M5) was 22.00 g and the “Percent inhibition of body weight” value ([2]; Day 3) was −0.6705%. For the same compound, the “Body Weight (g) (Mean ± SD)” value ([2]; Day 6) was 20.41 ± 0.960 g, the “Body weights on Day 6” value ([2]; Day 6, animal F1) was 20.40 g and the “Body weights on Day 6” value ([2]; Day 6, animal F2) was 18.40 g. The “Body weights on Day 6” value ([2]; Day 6, animal F3) was 19.70 g, the “Body weights on Day 6” value ([2]; Day 6, animal F4) was 20.10 g and the “Body weights on Day 6” value ([2]; Day 6, animal F5) was 20.50 g. For the same compound, the “Body weights on Day 6” value ([2]; Day 6, animal M1) was 20.90 g, the “Body weights on Day 6” value ([2]; Day 6, animal M2) was 21.80 g and the “Body weights on Day 6” value ([2]; Day 6, animal M3) was 20.20 g. For the same compound, the “Body weights on Day 6” value ([2]; Day 6, animal M4) was 20.50 g, the “Body weights on Day 6” value ([2]; Day 6, animal M5) was 21.60 g and the “Percent inhibition of body weight” value ([2]; Day 6) was −0.0490%. For the same compound, the “Body Weight (g) (Mean ± SD)” value ([2]; Day 9) was 20.99 ± 1.049 g, the “Body weights on Day 9” value ([2]; Day 9, animal F1) was 21.70 g and the “Body weights on Day 9” value ([2]; Day 9, animal F2) was 19.50 g. For the same compound, the “Body weights on Day 9” value ([2]; Day 9, animal F3) was 21.10 g, the “Body weights on Day 9” value ([2]; Day 9, animal F4) was 19.50 g and the “Body weights on Day 9” value ([2]; Day 9, animal F5) was 21.70 g. The “Body weights on Day 9” value ([2]; Day 9, animal M1) was 21.30 g, the “Body weights on Day 9” value ([2]; Day 9, animal M2) was 22.10 g and the “Body weights on Day 9” value ([2]; Day 9, animal M3) was 20.60 g. The “Body weights on Day 9” value ([2]; Day 9, animal M4) was 20.00 g, the “Body weights on Day 9” value ([2]; Day 9, animal M5) was 22.40 g and the “Percent inhibition of body weight” value ([2]; Day 9) was −2.8417%. The “Body Weight (g) (Mean ± SD)” value ([2]; Day 12) was 22.09 ± 1.079 g, the “Body weights on Day 12” value ([2]; Day 12, animal F1) was 22.50 g and the “Body weights on Day 12” value ([2]; Day 12, animal F2) was 20.10 g. For the same compound, the “Body weights on Day 12” value ([2]; Day 12, animal F3) was 21.40 g, the “Body weights on Day 12” value ([2]; Day 12, animal F4) was 21.70 g and the “Body weights on Day 12” value ([2]; Day 12, animal F5) was 22.20 g. The “Body weights on Day 12” value ([2]; Day 12, animal M1) was 22.80 g, the “Body weights on Day 12” value ([2]; Day 12, animal M2) was 23.40 g and the “Body weights on Day 12” value ([2]; Day 12, animal M3) was 22.20 g. For the same compound, the “Body weights on Day 12” value ([2]; Day 12, animal M4) was 21.00 g, the “Body weights on Day 12” value ([2]; Day 12, animal M5) was 23.60 g and the “Percent inhibition of body weight” value ([2]; Day 12) was −0.9137%. The “Body Weight (g) (Mean ± SD)” value ([2]; Day 15) was 22.22 ± 1.963 g, the “Body weights on Day 15” value ([2]; Day 15, animal F1) was 21.30 g and the “Body weights on Day 15” value ([2]; Day 15, animal F2) was 18.70 g. For the same compound, the “Body weights on Day 15” value ([2]; Day 15, animal F3) was 20.20 g, the “Body weights on Day 15” value ([2]; Day 15, animal F4) was 22.20 g and the “Body weights on Day 15” value ([2]; Day 15, animal F5) was 22.20 g. The “Body weights on Day 15” value ([2]; Day 15, animal M1) was 24.50 g, the “Body weights on Day 15” value ([2]; Day 15, animal M2) was 24.20 g and the “Body weights on Day 15” value ([2]; Day 15, animal M3) was 22.70 g. For the same compound, the “Body weights on Day 15” value ([2]; Day 15, animal M4) was 21.30 g, the “Body weights on Day 15” value ([2]; Day 15, animal M5) was 24.90 g and the “Percent inhibition of body weight” value ([2]; Day 15) was −0.3613%. For the same compound, the “body weight effect in words (loss / difference vs vehicle group)” value ([2]; throughout the course of the study) was “no statistical differences in body weights”.
